Tested on: breast cancer
Assay: mouse model for breast cancer, tumor mass and regrowth
Format: in vivo
Settings: for tumor regrowth / change in tumor mass on estrogen stimulation: stimulated with estrogen at day 115; for tumor size and regrowth: followed to 180 days
Procedure: Carbendazim is administered to the mice at 4000, 5000, and 6000 mg/kg of body weight in a separate leg.

Structure (SMILES) | tumor regrowth (cytoxan treated control, no carbendazim) | tumor regrowth / change in tumor mass on estrogen stimulation | tumor size and regrowth (carbendazim at 4000, 5000 and 6000 mg/kg given after 130 days to mice that had been treated with cytoxan) | dose dependence of tumor growth (carbendazim at 4000, 5000 and 6000 mg/kg of body weight) | tumor size and regrowth (carbendazim at 4000, 5000 and 6000 mg/kg of body weight in a separate leg)
O=P1(N(CCCl)CCCl)NCCCO1 (stereo not drawn) [cytoxan] | tumor regrowth after 100 days | rapid regrowth | – | – | –
COC(=O)Nc1nc2ccccc2[nH]1 [Carbendazim, 2-methoxycarbonylamino-benzimidazole] | – | no significant change in tumor mass | The tumor continued to decrease in size and its regrowth was limited even after 180 days | dose dependent | The tumor continued to decrease in size and its regrowth was limited even after 180 days
